According to US20170334899A1, “AMINO-SUBSTITUTED ISOTHIAZOLES” (Bayer Pharma Aktiengesellschaft, priority 2014, published 2017):

Assays:
Assay type in all cases: cell-based
DU145 = assay: Proliferation assay (crystal violet), DU145; details: Homo sapiens, DU-145, 96 h; DU145 cells; 4 days incubation; crystal violet staining; read-out: IC50 inhibition of proliferation, DU145
Description: (§1) Cultivated tumor cells (cells were ordered from ATCC, except HeLa-MaTu and HeLa-MaTu-ADR, which were ordered from EPO-GmbH, Berlin) were plated at a density of 1000 to 5000 cells/well, depending on the growth rate of the respective cell line, in a 96-well multititer plate in 200 μL of their respective growth medium supplemented 10% fetal calf serum. After 24 hours, the cells of one plate (zero-point plate) were stained with crystal violet (see below), while the medium of the other plates was replaced by fresh culture medium (200 μl), to which the test substances were added in various concentrations (0 μM, as well as in the range of 0.001-10 μM; the final concentration of the solvent dimethyl sulfoxide was 0.5%). The cells were incubated for 4 days in the presence of test substances. Cell proliferation was determined by staining the cells with crystal violet: the cells were fixed by adding 20 μl/measuring point of an 11% glutaric aldehyde solution for 15 minutes at room temperature. After three washing cycles of the fixed cells with water, the plates were dried at room temperature. The cells were stained by adding 100 μl/measuring point of a 0.1% crystal violet solution (pH 3.0). After three washing cycles of the stained cells with water, the plates were dried at room temperature. The dye was dissolved by adding 100 μl/measuring point of a 10% acetic acid solution. Absorbtion was determined by photometry at a wavelength of 595 nm. The change of cell number, in percent, was calculated by normalization of the measured values to the aborbtion values of the zero-point plate (=0%) and the absorbtion of the untreated (0 μm) cells (=100%). The IC50 values were determined by means of a 4 parameter fit.

Caco-2 = assay: Proliferation assay (crystal violet), Caco-2; details: Homo sapiens, 96 h; Caco-2 cells; 4 days incubation; crystal violet staining; read-out: IC50 inhibition of proliferation, Caco2
Description: as §1

B16F10 = assay: Proliferation assay (crystal violet), B16F10; details: Mus musculus, B16-F10, 96 h; B16F10 cells; 4 days incubation; crystal violet staining; read-out: IC50 inhibition of proliferation, B16F10
Description: as §1

HeLa = assay: Proliferation assay (crystal violet), HeLa; details: Homo sapiens, HeLa, 96 h, HeLa cells; 4 days incubation; crystal violet staining; read-out: IC50 inhibition of proliferation, HeLa
Procedure, shortened: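 Tumor cells seeded at 1000–5000 cells/well in medium with 10% FCS; after 24 h, compounds added at 0.001–10 μM (0.5% DMSO) for 4 days. Cells fixed with glutaraldehyde, stained with crystal violet, dye dissolved in acetic acid and read at 595 nm. IC50 from 4-parameter fit, normalized to zero-point plate and untreated cells.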

HeLa-MaTu-ADR = assay: Proliferation assay (crystal violet), HeLa-MaTu-ADR; details: 96 h; HeLa-MaTu-ADR cells; 4 days incubation; crystal violet staining; read-out: IC50 inhibition of proliferation, HeLa-MaTu-ADR
Description: as §1

NCI-H460 = assay: Proliferation assay (crystal violet), NCI-H460; details: Homo sapiens, 96 h; NCI-H460 cells; 4 days incubation; crystal violet staining; read-out: IC50 inhibition of proliferation, NCI-H460
Description: as §1

Row | Compound | IC50 (DU145) | IC50 (Caco-2) | IC50 (B16F10) | IC50 (HeLa) | IC50 (HeLa-MaTu-ADR) | IC50 (NCI-H460)
1 | Cc1nsc(Nc2cncc(C(F)(F)F)n2)c1C(=O)Nc1ccc(OCC2CCN(C(=O)OC(C)(C)C)C2)nc1 (stereo not drawn) [Example 110, tert-Butyl 3-{[(5-{[(3-methyl-5-{[6-(trifluoromethyl)pyrazin-2-yl]amino}-1,2-thiazol-4-yl)carbonyl]amino}pyridin-2-yl)oxy]methyl}pyrrolidine-1-carboxylate] | 2000 nM | 1500 nM | 800 nM | 850 nM | 950 nM | 360 nM
2 | Cc1nsc(Nc2cnc3ccccc3n2)c1C(=O)Nc1ccc(Oc2cccc(C(F)(F)F)c2)nc1 [Example 117, 3-Methyl-5-(quinoxalin-2-ylamino)-N-{6-[3-(trifluoromethyl)phenoxy]pyridin-3-yl}-1,2-thiazole-4-carboxamide] | 310 nM | 100 nM | 730 nM | 880 nM | 660 nM | 300 nM
3 | Cc1nsc(Nc2ccc(C#N)cn2)c1C(=O)Nc1ccc(Oc2cccc(C(F)(F)F)c2)nc1 [Example 118, 5-[(5-Cyanopyridin-2-yl)amino]-3-methyl-N-{6-[3-(trifluoromethyl)phenoxy]pyridin-3-yl}-1,2-thiazole-4-carboxamide] | 750 nM | 340 nM | 380 nM | 600 nM | 320 nM | 480 nM
